{"source": "paper PMC11990924", "about": "“Inhibition of Tyrosinase and Melanogenesis by Carboxylic Acids: Mechanistic Insights and Safety Evaluation” (Molecules, 2025)", "key": {"B16-F10 cells": {"tested_on": "B16-F10 cells", "assay": "Proteomic analysis of B16-F10 cells (DIA mass spectrometry)", "assay_type": "cell-based, mouse", "details": "6 mM vs control; Table S4", "protocol": "B16-F10 cells were treated with various concentrations of carboxylic acids following the same culture protocol used for melanin inhibition assays. After treatment, the cells were collected and submitted to Shanghai Zhongke Xinming Biotechnology Co., Ltd. (Shanghai, China) for proteomics analysis. The collected cells were lysed with an appropriate volume of SDT lysis buffer (4% SDS, 100 mM Tris-HCl, pH 7.6) to extract proteins. DTT was added to reduce disulfide bonds, followed by incubation at room temperature for 1 h. Subsequently, iodoacetamide was added, and the mixture was reacted in the dark at room temperature for 30 min. The proteins were then digested with trypsin overnight. The resulting peptide fragments were desalted using a C18 cartridge. After freeze-drying, the peptides were resuspended in 40 μL of 0.1% formic acid solution, and the peptide concentration was determined by measuring the absorbance at 280 nm. An appropriate amount of internal reference for targeted proteomics (iRT) standard peptides was added to each sample for data-independent acquisition (DIA) mass spectrometry analysis. Chromatographic separation was performed using a nanoflow Evosep One system. The separated samples were analyzed by DIA mass spectrometry using a timsTOF Pro mass spectrometer (Bruker Daltonics, Bremen, Germany). Detection was conducted in positive-ion mode, with MS and MS/MS scanning ranges set from 100 to 1700 m/z. MS2 data acquisition was performed in DIA mode, with four TIMS scan windows, each accumulating for 100 ms. In PASEF mode, the collision energy varied linearly with ion mobility (1/K0), ranging from 20 to 59 eV for ions with 1/K0 values between 0.85 and 1.30 Vs/cm^2. The DIA data were processed using Spectronaut 19 software with the following parameter settings: retention time prediction type set to dynamic iRT, interference correction on MS2 level enabled, cross-run normalization enabled, maximum missed cleavage sites set to 2, fixed modification set to Carbamidomethyl (C), and variable modifications set to Oxidation (M) and Acetyl (Protein N-term). All results were filtered with a Q-value cutoff of 0.01, corresponding to a false discovery rate (FDR) of less than 1%. The target protein set was annotated using Blast2GO (version BLASTP 2.8.0+). The process included four steps: sequence alignment (Blast), GO mapping, GO annotation, and additional annotation augmentation using InterProScan. Using the KOBAS 3.0 software, KEGG pathway annotation was performed on the target protein set. Fisher’s exact test was employed to compare the distribution of GO categories in the target protein set and the overall protein set, thereby conducting enrichment analysis of the GO annotations in the target protein set. The proteomics dataset generated in this study has been made publicly available through the PRIDE ProteomeXchange Consortium with the dataset identifier PXD061919."}, "[1]": {"assay": "L-DOPA auto-oxidation analysis", "protocol": "A 5 mM L-DOPA solution was prepared in PBS buffer (pH 7.4). Subsequently, 240 μL of carboxylic acid solution, 360 μL of L-DOPA solution, and 120 μL of PBS buffer were sequentially mixed. The mixture was then incubated at 37 °C for 12 h. […] Deionized water was used as the control. The inhibition of L-DOPA auto-oxidation was calculated using the same method as the melanin content analysis."}}}
{"smiles": "O=C(O)CC(O)C(=O)O", "note": "(stereo not drawn) [malic acid]", "values": [{"measurement": "Abhd14a protein fold change", "setting": "B16-F10 cells", "result": 0.4947}, {"measurement": "Acvr1b protein fold change", "setting": "B16-F10 cells", "result": 0.348}, {"measurement": "Adgrg1 protein fold change", "setting": "B16-F10 cells", "result": 0.3255}, {"measurement": "Aplp2 protein fold change", "setting": "B16-F10 cells", "result": 0.1925}, {"measurement": "App protein fold change", "setting": "B16-F10 cells", "result": 0.309}, {"measurement": "Arrdc3 protein fold change", "setting": "B16-F10 cells", "result": 0.2723}, {"measurement": "Atp6ap2 protein fold change", "setting": "B16-F10 cells", "result": 0.4615}, {"measurement": "Atxn2l protein fold change", "setting": "B16-F10 cells", "result": 0.3743}, {"measurement": "Bace2 protein fold change", "setting": "B16-F10 cells", "result": 0.2949}, {"measurement": "CUB domain-containing protein (Q3TD85) fold change", "setting": "B16-F10 cells", "result": 0.319}, {"measurement": "Cd151 protein fold change", "setting": "B16-F10 cells", "result": 0.3796}, {"measurement": "Cox6a1 protein fold change", "setting": "B16-F10 cells", "result": 2.331}, {"measurement": "Cpe protein fold change", "setting": "B16-F10 cells", "result": 0.425}, {"measurement": "Cryab protein fold change", "setting": "B16-F10 cells", "result": 0.4352}, {"measurement": "Ctns protein fold change", "setting": "B16-F10 cells", "result": 0.4962}, {"measurement": "Cxne protein fold change", "setting": "B16-F10 cells", "result": 0.4043}, {"measurement": "Cyp51a1 protein fold change", "setting": "B16-F10 cells", "result": 0.4596}, {"measurement": "Dct protein fold change", "setting": "B16-F10 cells", "result": 0.453}, {"measurement": "Ddr1 protein fold change", "setting": "B16-F10 cells", "result": 0.4956}, {"measurement": "Dgcr2 protein fold change", "setting": "B16-F10 cells", "result": 0.4757}, {"measurement": "Dhrsx protein fold change", "setting": "B16-F10 cells", "result": 0.4224}, {"measurement": "E2f5 protein fold change", "setting": "B16-F10 cells", "result": 2.052}, {"measurement": "Eng protein fold change", "setting": "B16-F10 cells", "result": 0.4971}, {"measurement": "Fam174b protein fold change", "setting": "B16-F10 cells", "result": 0.4334}, {"measurement": "Fau protein fold change", "setting": "B16-F10 cells", "result": 4.207}, {"measurement": "Fip1l1 protein fold change", "setting": "B16-F10 cells", "result": 0.4619}, {"measurement": "Fth1 protein fold change", "setting": "B16-F10 cells", "result": 2.2552}, {"measurement": "Ftl1 protein fold change", "setting": "B16-F10 cells", "result": 2.521}, {"measurement": "Ginm1 protein fold change", "setting": "B16-F10 cells", "result": 0.2408}, {"measurement": "Globin family profile domain-containing protein (Q8BPF4) fold change", "setting": "B16-F10 cells", "result": 0.4868}, {"measurement": "Gpnmb protein fold change", "setting": "B16-F10 cells", "result": 0.4267}, {"measurement": "H1-0 protein fold change", "setting": "B16-F10 cells", "result": 2.091}, {"measurement": "H1-1 protein fold change", "setting": "B16-F10 cells", "result": 2.387}, {"measurement": "Haghl protein fold change", "setting": "B16-F10 cells", "result": 2.0913}, {"measurement": "Hbbt1 protein fold change", "setting": "B16-F10 cells", "result": 0.3537}, {"measurement": "Hist2h2aa1 protein fold change", "setting": "B16-F10 cells", "result": 5.559}, {"measurement": "Hspb1 protein fold change", "setting": "B16-F10 cells", "result": 0.432}, {"measurement": "Ifitm2 protein fold change", "setting": "B16-F10 cells", "result": 0.2473}, {"measurement": "Ifitm3 protein fold change", "setting": "B16-F10 cells", "result": 0.405}, {"measurement": "Ifngr1 protein fold change", "setting": "B16-F10 cells", "result": 0.477}, {"measurement": "Il10rb protein fold change", "setting": "B16-F10 cells", "result": 0.279}, {"measurement": "Il17ra protein fold change", "setting": "B16-F10 cells", "result": 0.4348}, {"measurement": "Itih3 protein fold change", "setting": "B16-F10 cells", "result": 0.2609}, {"measurement": "Itm2b protein fold change", "setting": "B16-F10 cells", "result": 0.1357}, {"measurement": "Itm2c protein fold change", "setting": "B16-F10 cells", "result": 0.2222}, {"measurement": "Lama2 protein fold change", "setting": "B16-F10 cells", "result": 2.748}, {"measurement": "Laptm4b protein fold change", "setting": "B16-F10 cells", "result": 0.1099}, {"measurement": "Ldlr protein fold change", "setting": "B16-F10 cells", "result": 0.3286}, {"measurement": "Lgmn protein fold change", "setting": "B16-F10 cells", "result": 0.3573}, {"measurement": "Lmbrd1 protein fold change", "setting": "B16-F10 cells", "result": 0.4382}, {"measurement": "Map1lc3b protein fold change", "setting": "B16-F10 cells", "result": 0.4627}, {"measurement": "Mapre2 protein fold change", "setting": "B16-F10 cells", "result": 0.4775}, {"measurement": "Mfap3 protein fold change", "setting": "B16-F10 cells", "result": 0.2203}, {"measurement": "Mfge8 protein fold change", "setting": "B16-F10 cells", "result": 0.4888}, {"measurement": "Mlana protein fold change", "setting": "B16-F10 cells", "result": 0.1802}, {"measurement": "Ndfip1 protein fold change", "setting": "B16-F10 cells", "result": 0.1482}, {"measurement": "Nrp1 protein fold change", "setting": "B16-F10 cells", "result": 0.4816}, {"measurement": "Nrp2 protein fold change", "setting": "B16-F10 cells", "result": 0.3963}, {"measurement": "Nus1 protein fold change", "setting": "B16-F10 cells", "result": 0.4939}, {"measurement": "Pbx1 protein fold change", "setting": "B16-F10 cells", "result": 2.038}, {"measurement": "Pcdhgb2 protein fold change", "setting": "B16-F10 cells", "result": 0.2826}, {"measurement": "Peli1 protein fold change", "setting": "B16-F10 cells", "result": 0.4419}, {"measurement": "Plekhb2 protein fold change", "setting": "B16-F10 cells", "result": 0.4812}, {"measurement": "Pmel protein fold change", "setting": "B16-F10 cells", "result": 0.458}, {"measurement": "Ppp1r12b protein fold change", "setting": "B16-F10 cells", "result": 2.498}, {"measurement": "Psap protein fold change", "setting": "B16-F10 cells", "result": 0.4952}, {"measurement": "Ptprs protein fold change", "setting": "B16-F10 cells", "result": 0.4661}, {"measurement": "Pwwp3a protein fold change", "setting": "B16-F10 cells", "result": 2.511}, {"measurement": "Rhob protein fold change", "setting": "B16-F10 cells", "result": 0.4341}, {"measurement": "Rhoj protein fold change", "setting": "B16-F10 cells", "result": 0.4834}, {"measurement": "Rnf130 protein fold change", "setting": "B16-F10 cells", "result": 0.4325}, {"measurement": "Sdcbp protein fold change", "setting": "B16-F10 cells", "result": 0.4716}, {"measurement": "Sema4b protein fold change", "setting": "B16-F10 cells", "result": 0.4477}, {"measurement": "Sema6d protein fold change", "setting": "B16-F10 cells", "result": 0.4605}, {"measurement": "Sgce protein fold change", "setting": "B16-F10 cells", "result": 0.2346}, {"measurement": "Sh3bp2 protein fold change", "setting": "B16-F10 cells", "result": 0.3699}, {"measurement": "Slc4a2 protein fold change", "setting": "B16-F10 cells", "result": 0.4141}, {"measurement": "Slc24a5 protein fold change", "setting": "B16-F10 cells", "result": 0.4133}, {"measurement": "Slc38a2 protein fold change", "setting": "B16-F10 cells", "result": 0.2034}, {"measurement": "Slc45a2 protein fold change", "setting": "B16-F10 cells", "result": 0.4213}, {"measurement": "Sppl2b protein fold change", "setting": "B16-F10 cells", "result": 0.4857}, {"measurement": "Spring1 protein fold change", "setting": "B16-F10 cells", "result": 0.2636}, {"measurement": "Syt4 protein fold change", "setting": "B16-F10 cells", "result": 0.1657}, {"measurement": "Tax1bp1 protein fold change", "setting": "B16-F10 cells", "result": 0.4715}, {"measurement": "Tcf7l1 protein fold change", "setting": "B16-F10 cells", "result": 0.4286}, {"measurement": "Tgfbr1 protein fold change", "setting": "B16-F10 cells", "result": 0.4711}, {"measurement": "Tk1 protein fold change", "setting": "B16-F10 cells", "result": 2.015}, {"measurement": "Tmem59 protein fold change", "setting": "B16-F10 cells", "result": 0.1062}, {"measurement": "Tmem176a protein fold change", "setting": "B16-F10 cells", "result": 0.2285}, {"measurement": "Tnfrsf1a protein fold change", "setting": "B16-F10 cells", "result": 0.4638}, {"measurement": "Tpp1 protein fold change", "setting": "B16-F10 cells", "result": 0.3033}, {"measurement": "Tspan3 protein fold change", "setting": "B16-F10 cells", "result": 0.3098}, {"measurement": "Tspan6 protein fold change", "setting": "B16-F10 cells", "result": 0.466}, {"measurement": "Tspan10 protein fold change", "setting": "B16-F10 cells", "result": 0.2722}, {"measurement": "Tspan14 protein fold change", "setting": "B16-F10 cells", "result": 0.4171}, {"measurement": "Tyr protein fold change", "setting": "B16-F10 cells", "result": 0.3761}, {"measurement": "Tyrp1 protein fold change", "setting": "B16-F10 cells", "result": 0.2755}, {"measurement": "Ubl3 protein fold change", "setting": "B16-F10 cells", "result": 0.2044}, {"measurement": "Wfdc3 protein fold change", "setting": "B16-F10 cells", "result": 0.3403}, {"measurement": "il6st protein fold change", "setting": "B16-F10 cells", "result": 0.3637}, {"measurement": "L-DOPA auto-oxidation inhibition rate", "setting": "[1]; 0.75 mM", "result": "exceeding 80%"}, {"measurement": "IC50", "setting": "[1]; 37 °C, 12 h, calculated using SPSS, read-out: IC50 for L-DOPA auto-oxidation inhibition", "result": 380, "unit": "µM"}]}
